The results in this text go back to US10683453B2, “Organic compounds with soluble groups” (Merck Patent GmbH, priority 2014, dated 2020).

The series is described as follows: Determination of solubility in toluene. The format is physicochemical. The following applies: stirred at 60° C. for 1 h, cooled to room temperature, yes = clear solution lacking any large particles. The procedure: Determination of Solubility
In order to examine whether a material has a toluene solubility of 10 mg/ml or more, the procedure is as follows: 20 mg of material in solid form are initially charged in a sample bottle. At room temperature (20° C.), 2 ml of toluene are added. The bottle is closed and the contents are stirred at 60° C. on a heatable magnetic stirrer for 1 h. In the course of this, good thermal contact is ensured by means of an aluminium block having holes into which the bottles fit exactly. After 1 h, the bottle is removed and left to cool to room temperature. If a clear solution lacking any large particles is present in the bottle, at least 10 mg/ml of the material are soluble in toluene.
Solubilities with other solubility limits are determined in entirely the same way. The starting weight is also matched to 2 ml of solvent.
Regarding `N#Cc1ccc2c(c1)C1(c3cc(C#N)ccc3-2)c2ccccc2N(c2cc(-c3ccccc3)cc(-c3ccccc3)c2)c2ccccc21` [Compound 6a, 2′,7′-Cyano-10H-terphenyl-10H-spiro(acridine-9,9′-fluorene)], the “Solubility in toluene > 2 mg/ml” value is given as “yes”, the “Solubility in toluene > 5 mg/ml” value was “yes” and the “Solubility in toluene > 10 mg/ml” value is “no”.
For the compound `CCCCCCc1ccc2c(c1)c1cc(CCCCCC)ccc1n2-c1c(C#N)c(-n2c3ccc(CCCCCC)cc3c3cc(CCCCCC)ccc32)c(C#N)c(-n2c3ccc(CCCCCC)cc3c3cc(CCCCCC)ccc32)c1C#N` [Compound 19d], the “Solubility in toluene > 2 mg/ml” value is “yes”, the “Solubility in toluene > 5 mg/ml” value is on record as “yes” and the “Solubility in toluene > 10 mg/ml” value is “yes”.
For `N#Cc1c(-n2c3ccccc3c3ccccc32)c(C#N)c(-n2c3ccccc3c3ccccc32)c(-n2c3ccccc3c3ccccc32)c1-n1c2ccccc2c2ccccc21` [reference compound], the “Solubility in toluene > 2 mg/ml” value is given as “yes”, the “Solubility in toluene > 5 mg/ml” value was “no” and the “Solubility in toluene > 10 mg/ml” value is recorded as “no”.
Consider `N#Cc1ccc2c(c1)C1(c3cc(C#N)ccc3-2)c2ccccc2N(c2ccccc2)c2ccccc21` [reference compound], for which the “Solubility in toluene > 2 mg/ml” value was “no”, the “Solubility in toluene > 5 mg/ml” value is recorded as “no” and the “Solubility in toluene > 10 mg/ml” value was “no”.
Take `N#CC(C#N)=C1c2ccccc2C2(c3ccccc31)c1ccccc1N(c1ccccc1)c1ccccc12` [reference compound]: the “Solubility in toluene > 2 mg/ml” value was “yes”, the “Solubility in toluene > 5 mg/ml” value is “no” and the “Solubility in toluene > 10 mg/ml” value is listed as “no”.
Regarding `CCCCCCc1cc(CCCCCC)cc(N2c3ccccc3C3(c4ccccc4C(=C(C#N)C#N)c4ccccc43)c3ccccc32)c1` [Compound 9a], the “Solubility in toluene > 2 mg/ml” value is reported as “yes”, the “Solubility in toluene > 5 mg/ml” value is “yes” and the “Solubility in toluene > 10 mg/ml” value is reported as “yes”.
Turning to `N#CC(C#N)=C1c2ccccc2C2(c3ccccc31)c1ccccc1N(c1c(-c3ccccc3)cc(-c3ccccc3)cc1-c1ccccc1)c1ccccc12` [Compound 9e], the “Solubility in toluene > 2 mg/ml” value is reported as “yes”, the “Solubility in toluene > 5 mg/ml” value is on record as “yes” and the “Solubility in toluene > 10 mg/ml” value was “no”.
